Data published in US20240116946A1 (Gilead Sciences, Inc., priority 2022, published 2024).
Where two headings read alike, the source gives them in different places.

How the values were obtained:
[1] = biological target: recombinant SARS-CoV-2 Main protease (Mpro) (Severe acute respiratory syndrome coronavirus 2 (2019-nCoV) (SARS-CoV-2), UniProt P0DTD1); experiment: Cov Mpro Biochemical IC50 Assay; settings: read-out: MPro IC50
SARS-CoV-2-NLuc = experiment: microbe, parasite or virus in culture; format: cell-based, SARS Coronavirus 2
[2] = recombinant SARS-CoV-2 Mpro 7.5 nM, fluorogenic peptide substrate 40 μM
[3] = recombinant SARS-CoV-2 Mpro, fluorogenic peptide substrate
[4] = Severe acute respiratory syndrome coronavirus, 48 h, read-out: MPro EC50
[5] = Severe acute respiratory syndrome coronavirus, 48 h; read-out: MPro EC50

COc1cc(-c2cc3[nH]c(=O)n(-c4cncc5ccccc45)c(=O)c3cc2F)c(C#N)cc1F (single isomer, unassigned) [Example 511, 5-fluoro-2-[6-fluoro-3-(4-isoquinolyl)-2,4-dioxo-1H-quinazolin-7-yl]-4-methoxy-benzonitrile]
IC50 [1, 2]: 913 nM
EC50 (SARS-CoV-2-NLuc; read-out: MPro EC50): 604 nM

O=c1[nH]c2cc(-c3ccccc3Cl)ccc2c(=O)n1-c1cnccc1C(F)(F)F [Example 125]
IC50 [1, 3]: 22500 nM
EC50 (SARS-CoV-2-NLuc; [4]): 17500 nM

O=c1[nH]c2cc(-c3ccsc3-c3ccsc3Cl)ccc2c(=O)n1-c1cncc2ccccc12 [Example 85]
IC50 [1, 3]: 1490 nM
EC50 (SARS-CoV-2-NLuc; [4]): 751 nM

Cc1ncc(-c2cccc(Cl)c2-c2ccc3c(=O)n(-c4cncc5ccccc45)c(=O)[nH]c3c2)n1C [Example 352]
IC50 [1, 3]: 41.8 nM
EC50 (SARS-CoV-2-NLuc; [4]): 120 nM

COc1cnc(C#N)c(-c2cc3[nH]c(=O)n(-c4cncc5ccccc45)c(=O)c3s2)c1 [Example 541]
IC50 [1, 2]: 17.6 nM
EC50 (SARS-CoV-2-NLuc; [4]): 237 nM

O=c1[nH]c2cc(-c3c(Cl)cccc3-c3ccnnc3)ccc2c(=O)n1-c1cncc2ccccc12 [Example 101, 7-(2-chloro-6-(pyridazin-4-yl)phenyl)-3-(isoquinolin-4-yl)quinazoline-2,4(1H,3H)-dione]
IC50 [1, 3]: 13.7 nM
EC50 (SARS-CoV-2-NLuc; [5]): 73.8 nM

COc1cc(-c2cc3c(s2)c(=O)n(-c2cncc(F)c2C)c(=O)n3CCC#N)c(Cl)cc1F (single isomer, unassigned) [Example 1027, 3-[6-(2-chloro-4-fluoro-5-methoxy-phenyl)-3-(5-fluoro-4-methyl-3-pyridyl)-2,4-dioxo-thieno[3,2-d]pyrimidin-1-yl]propanenitrile]
IC50 [1, 2]: 61.9 nM
EC50 (SARS-CoV-2-NLuc; read-out: MPro EC50): 66.1 nM

COc1cc(-c2cc3c(s2)c(=O)n(-c2cncc4ccccc24)c(=O)n3CCC#N)c(C#N)cc1F (single isomer, unassigned) [Example 968, 2-(1-(2-cyanoethyl)-3-(isoquinolin-4-yl)-2,4-dioxo-1,2,3,4-tetrahydrothieno[3,2-d]pyrimidin-6-yl)-5-fluoro-4-methoxybenzonitrile]
IC50 [1, 2]: 89.1 nM
EC50 (SARS-CoV-2-NLuc; read-out: MPro EC50): 96 nM

O=c1[nH]c2cc(-c3c(Cl)cccc3-c3cccnc3)ccc2c(=O)n1-c1cncc2ccccc12 [Example 187]
IC50 [1, 3]: 29.4 nM
EC50 (SARS-CoV-2-NLuc; [4]): 17.6 nM

COc1ccc(C#N)c(-c2cc3[nH]c(=O)n(-c4cncc5ccccc45)c(=O)c3cc2F)c1 (single isomer, unassigned) [Example 439, 2-(6-fluoro-3-(isoquinolin-4-yl)-2,4-dioxo-1,2,3,4-tetrahydroquinazolin-7-yl)-4-methoxybenzonitrile]
IC50 [1, 2]: 828 nM
EC50 (SARS-CoV-2-NLuc; read-out: MPro EC50): 377 nM

Cc1cc(-c2cccc(Cl)c2-c2ccc3c(=O)n(-c4cncc5ccccc45)c(=O)[nH]c3c2)cc(C#N)n1 [Example 317]
IC50 [1, 3]: 11 nM
EC50 (SARS-CoV-2-NLuc; [4]): 4.97 nM

COc1cc(-c2cc3c(s2)c(=O)n(-c2cncc4ccncc24)c(=O)n3CCC#N)c(Cl)cc1F (single isomer, unassigned) [Example 1097, 3-[6-(2-chloro-4-fluoro-5-methoxy-phenyl)-3-(2,6-naphthyridin-4-yl)-2,4-dioxo-thieno[3,2-d]pyrimidin-1-yl]propanenitrile]
IC50 [1, 2]: 42.5 nM
EC50 (SARS-CoV-2-NLuc; read-out: MPro EC50): 33.2 nM

CC(C)(C)c1cncc(-n2c(=O)[nH]c3cc(-c4ccccc4Cl)sc3c2=O)c1 [Example 577]
IC50 [1, 2]: > 50000 nM
EC50 (SARS-CoV-2-NLuc; [5]): 12100 nM

COc1cc(-c2cc3c(s2)c(=O)n(-c2cccnc2)c(=O)n3CCC#N)c(C#N)cc1F [Example 799]
IC50 [1, 2]: 10.3 nM
EC50 (SARS-CoV-2-NLuc; [5]): 42.9 nM

Cc1cccc(C#N)c1-c1ccc2c(=O)n(-c3cncc4ccccc34)c(=O)[nH]c2c1 [Example 96]
IC50 [1, 3]: 151 nM
EC50 (SARS-CoV-2-NLuc; [4]): 296 nM

COc1cccc(C#N)c1-c1cc2c(s1)c(=O)n(-c1cncc3cnn(C)c13)c(=O)n2CCC#N [Example 838, 2-(1-(2-cyanoethyl)-3-(1-methyl-1H-pyrazolo[4,3-c]pyridin-7-yl)-2,4-dioxo-1,2,3,4-tetrahydrothieno[3,2-d]pyrimidin-6-yl)-3-methoxybenzonitrile]
IC50 [1, 2]: 32.5 nM
EC50 (SARS-CoV-2-NLuc; [4]): 115 nM

COc1ccc(Cl)c(-c2ccc3c(=O)n(-c4cncc5ccc(OC)cc45)c(=O)[nH]c3c2)c1 [Example 238]
IC50 [1, 3]: 48 nM
EC50 (SARS-CoV-2-NLuc; [5]): 54.5 nM

COc1ccc(Cl)c(-c2cc3[nH]c(=O)n(-c4cncc5ccn(C)c45)c(=O)c3s2)c1 [Example 455]
IC50 [1, 2]: 7.26 nM
EC50 (SARS-CoV-2-NLuc; [4]): 7.02 nM

Cc1cncc(-n2c(=O)[nH]c3cc(-c4ccccc4Cl)sc3c2=O)c1OCC(F)(F)F [Example 372]
IC50 [1, 3]: 77.8 nM
EC50 (SARS-CoV-2-NLuc; [4]): 176 nM

COc1cc(-c2cc3c(s2)c(=O)n(-c2cncc4nc(C)n(C)c24)c(=O)n3CCC#N)c(Cl)cc1F (single isomer, unassigned) [Example 970, 3-(6-(2-chloro-4-fluoro-5-methoxyphenyl)-3-(1,2-dimethyl-1H-imidazo[4,5-c]pyridin-7-yl)-2,4-dioxo-3,4-dihydrothieno[3,2-d]pyrimidin-1(2H)-yl)propanenitrile]
IC50 [1, 2]: 3.96 nM
EC50 (SARS-CoV-2-NLuc; read-out: MPro EC50): 18.9 nM

COc1cc(-c2cc3[nH]c(=O)n(-c4cncc5cc(C(C)(C)O)sc45)c(=O)c3s2)c(Cl)cc1F [Example 513]
IC50 [1, 2]: 7.18 nM
EC50 (SARS-CoV-2-NLuc; [4]): 45.9 nM

COc1cc(-c2cc3c(s2)c(=O)n(-c2cncc4ccccc24)c(=O)n3CC2(C#N)CC2)c(Cl)cc1F (single isomer, unassigned) [Example 635, 1-[[6-(2-chloro-4-fluoro-5-methoxy-phenyl)-3-(4-isoquinolyl)-2,4-dioxo-thieno[3,2-d]pyrimidin-1-yl]methyl]cyclopropanecarbonitrile]
IC50 [1, 2]: 3.26 nM
EC50 (SARS-CoV-2-NLuc; read-out: MPro EC50): 1.78 nM

N#Cc1ccc(Cl)cc1-c1cc2[nH]c(=O)n(-c3cncc4ccccc34)c(=O)c2s1 [Example 685]
IC50 [1, 2]: 12 nM
EC50 (SARS-CoV-2-NLuc; [4]): 69.2 nM

COc1cc(-c2cc3c(s2)c(=O)n(-c2cncc4ccc(C#N)cc24)c(=O)n3CCC#N)c(Cl)cc1F [Example 1062]
IC50 [1, 2]: 4.87 nM
EC50 (SARS-CoV-2-NLuc; [4]): 5.42 nM

COCc1ccc(Cl)c(-c2ccc3c(=O)n(-c4cncc5ccccc45)c(=O)[nH]c3c2)c1 [Example 303]
IC50 [1, 3]: 270 nM
EC50 (SARS-CoV-2-NLuc; [4]): 365 nM

Cc1c(-c2cccc(Cl)c2-c2ccc3c(=O)n(-c4cncc5ccccc45)c(=O)[nH]c3c2)cnn1C1CCNCC1 [Example 473]
IC50 [1, 2]: 17.5 nM
EC50 (SARS-CoV-2-NLuc; [4]): 1810 nM

Cc1ccc(C#N)cc1-c1cc2[nH]c(=O)n(-c3cncc4ccccc34)c(=O)c2s1 [Example 546]
IC50 [1, 2]: 15.4 nM
EC50 (SARS-CoV-2-NLuc; [4]): 164 nM

COc1cc(-c2cc3c(s2)c(=O)n(-c2cncc4cnsc24)c(=O)n3CCC#N)c(Cl)cc1F [Example 922]
IC50 [1, 2]: 2.8 nM
EC50 (SARS-CoV-2-NLuc; [4]): > 1000 nM

O=c1[nH]c2cc(-c3c(Cl)cccc3-c3cc(C(F)(F)F)c4ncnn4c3)ccc2c(=O)n1-c1cncc2ccccc12 [Example 145]
IC50 [1, 3]: 23.9 nM
EC50 (SARS-CoV-2-NLuc; [5]): 43 nM

COCc1ccccc1-c1ccc2c(=O)n(-c3cncc4ccccc34)c(=O)[nH]c2c1 [Example 54]
IC50 [1, 3]: 741 nM
EC50 (SARS-CoV-2-NLuc; [4]): 1630 nM

O=c1[nH]c2cc(-c3ccccc3Cl)sc2c(=O)n1-c1cncc2nccn12 [Example 135]
IC50 [1, 3]: 51.5 nM
EC50 (SARS-CoV-2-NLuc; [4]): 288 nM

O=c1[nH]c2nc(-c3ccccc3Cl)ccc2c(=O)n1-c1cncc2ccccc12 [Example 32]
IC50 [1, 3]: 2280 nM
EC50 (SARS-CoV-2-NLuc; [5]): 7060 nM

COc1ccc(Cl)c(-c2cc3[nH]c(=O)n(-c4cncc5cccc(F)c45)c(=O)c3s2)c1 [Example 445]
IC50 [1, 2]: 5.71 nM
EC50 (SARS-CoV-2-NLuc; [4]): 22 nM

COc1cc(-c2cc3c(s2)c(=O)n(-c2cncc4cnn(C)c24)c(=O)n3CCC#N)c(C#N)cc1F [Example 999, 2-(1-(2-cyanoethyl)-3-(1-methyl-1H-pyrazolo[4,3-c]pyridin-7-yl)-2,4-dioxo-1,2,3,4-tetrahydrothieno[3,2-d]pyrimidin-6-yl)-5-fluoro-4-methoxybenzonitrile]
IC50 [1, 2]: 7.15 nM
EC50 (SARS-CoV-2-NLuc; [5]): 15.7 nM

COc1cc(-c2cc3c(s2)c(=O)n(-c2cncc4cnn(C)c24)c(=O)n3CCN(C)C)c(Cl)cc1F [Example 1068]
IC50 [1, 2]: 74.2 nM
EC50 (SARS-CoV-2-NLuc; [4]): 219 nM

COc1ccc(Cl)c(-c2cc3[nH]c(=O)n(-c4cncc5cccnc45)c(=O)c3s2)c1 (single isomer, unassigned) [Example 467, 6-(2-chloro-5-methoxyphenyl)-3-(1,6-naphthyridin-8-yl)thieno[3,2-d]pyrimidine-2,4(1H,3H)-dione]
IC50 [1, 2]: 11.4 nM
EC50 (SARS-CoV-2-NLuc; read-out: MPro EC50): 38.1 nM

Cc1noc(C)c1-c1cccc(Cl)c1-c1cc2[nH]c(=O)n(-c3cncc4ccccc34)c(=O)c2s1 [Example 355]
IC50 [1, 3]: 9.64 nM
EC50 (SARS-CoV-2-NLuc; [4]): 22.9 nM

COc1ccc(Cl)c(-c2cc3[nH]c(=O)n(-c4cncc5ccc(CO)cc45)c(=O)c3s2)c1 [Example 552, 6-(2-chloro-5-methoxyphenyl)-3-(6-(hydroxymethyl)isoquinolin-4-yl)thieno[3,2-d]pyrimidine-2,4(1H,3H)-dione]
IC50 [1, 2]: 7.13 nM
EC50 (SARS-CoV-2-NLuc; [4]): 12.4 nM

COc1cc(-c2cc3c(s2)c(=O)n(-c2cncc4ncc(C)n24)c(=O)n3CCC#N)c(Cl)cc1F [Example 952]
IC50 [1, 2]: 10.9 nM
EC50 (SARS-CoV-2-NLuc; [4]): 16.2 nM

Cn1c(C(F)(F)F)nc2cncc(-n3c(=O)c4sc(-c5ccc(F)cc5Cl)cc4n(CCC#N)c3=O)c21 [Example 857]
IC50 [1, 2]: 161 nM
EC50 (SARS-CoV-2-NLuc; [5]): 348 nM

O=c1[nH]c2cc(-c3ccc(F)cc3Cl)sc2c(=O)n1-c1cncc2ccccc12 [Example 13]
IC50 [1, 3]: 17.1 nM
EC50 (SARS-CoV-2-NLuc; [4]): 42.4 nM

Cc1cc(Cl)c(-c2cc3[nH]c(=O)n(-c4cncc5ccccc45)c(=O)c3s2)cc1C#N [Example 548]
IC50 [1, 2]: 7.55 nM
EC50 (SARS-CoV-2-NLuc; [4]): 114 nM

COc1cc(-c2cc3c(s2)c(=O)n(-c2cncc4ccccc24)c(=O)n3CCC#N)c(C#N)cc1F [Example 1001, 2-(1-(2-cyanoethyl)-3-(isoquinolin-4-yl)-2,4-dioxo-1,2,3,4-tetrahydrothieno[3,2-d]pyrimidin-6-yl)-5-fluoro-4-methoxybenzonitrile]
IC50 [1, 2]: 5.04 nM
EC50 (SARS-CoV-2-NLuc; [4]): 3.11 nM
